Data as given in US20160376605A1, “WHEAT PLANTS HAVING INCREASED TOLERANCE TO IMIDAZOLINONE HERBICIDES” (BASF SE, priority 2003, published 2016).

Key:
[1] = system: AHAS of M2-derived imidazolinone herbicide tolerant lines; assay: In vitro AHAS activity, tolerant lines overall; format: biochemical, Durum wheat; details: highest concentration of imazamox (100 uM), 'generally'
Excerpt: The in vitro activity of AHAS enzyme extracted from the plant can be measured biochemically. […] Even at relatively low concentrations, AHAS activity falls off rapidly.
Table 3 also contains AHAS activity data for several M2-derived imidazolinone herbicide tolerant lines.

[2] = system: Durum wheat M3:4 lines derived from M2 plant UT20; assay: Field Trials (2): tolerance scores at two rates of imazamox; format: in vivo; details: UT20, range across M3:4 lines
Excerpt: (§1) One hundred ten M3:4 lines derived from sixteen M2 plants were screened at 71 g/ha and 160 g/ha imazamox. The number of M4 lines per M2 plant varied from one to twenty. Tolerance of M3:4 lines was compared to untreated plots of the same line as well as to treated plots of a wild-type cultivar from which some of them were derived.
(§2) All tested lines survived at both rates of herbicide treatment, whereas all plants of the wild type were killed at both rates. Based on comparison to the wild type line, all lines tested expressed considerable tolerance to the applied rates, particularly when looking at height reduction relative to untreated plots. A rate of 35 g/ha imazamox is adequate to kill susceptible durum wheat.

[3] = system: Durum wheat M3:4 lines derived from M2 plant UT15; assay: as above; format: in vivo; details: UT15, range across M3:4 lines
Excerpt: as §1, §2

Durum line UT10 = assay: Greenhouse Trial: plant injury rating, imazamox; format: in vivo, Durum wheat; details: 0-9 scale, 0 = no injury, 9 = plant death
Procedure: (§3) Fifteen Durum lines, each derived from a different M2 plant, and two wild type durum lines were evaluated for tolerance to the imidazolinone herbicide imazamox at rates of 100 and 160 g/ha in a greenhouse trial. Evaluations of tolerance were made at 14 and 21 days after treatment. Injury was scored on a 0-9 scale, with 0 representing no injury and 9 plant death.

Durum line UT19 = assay: Greenhouse Trial: plant injury rating, imazamox; format: in vivo, Durum wheat; details: 0-9 scale, 0 = no injury, 9 = plant death
Procedure: as §3

Durum line UTO8 = assay: Greenhouse Trial: plant injury rating, imazamox; format: in vivo, Durum wheat; details: 0-9 scale, 0 = no injury, 9 = plant death
Procedure: as §3

Durum line C119 = assay: Greenhouse Trial: plant injury rating, imazamox; format: in vivo, Durum wheat; details: 0-9 scale, 0 = no injury, 9 = plant death
Procedure: as §3

Durum line UT14 = assay: Greenhouse Trial: plant injury rating, imazamox; format: in vivo, Durum wheat; details: 0-9 scale, 0 = no injury, 9 = plant death
Procedure: as §3

Durum line UT13 = assay: Greenhouse Trial: plant injury rating, imazamox; format: in vivo, Durum wheat; details: 0-9 scale, 0 = no injury, 9 = plant death
Procedure: as §3

Durum line UT17 = assay: Greenhouse Trial: plant injury rating, imazamox; format: in vivo, Durum wheat; details: 0-9 scale, 0 = no injury, 9 = plant death
Procedure: as §3

Durum line UT16 = assay: Greenhouse Trial: plant injury rating, imazamox; format: in vivo, Durum wheat; details: 0-9 scale, 0 = no injury, 9 = plant death
Procedure: as §3

Durum line UTO5 = assay: Greenhouse Trial: plant injury rating, imazamox; format: in vivo, Durum wheat; details: 0-9 scale, 0 = no injury, 9 = plant death
Procedure: as §3

Durum line UTO3 = assay: Greenhouse Trial: plant injury rating, imazamox; format: in vivo, Durum wheat; details: 0-9 scale, 0 = no injury, 9 = plant death
Procedure: as §3

Durum line UTO1 = assay: Greenhouse Trial: plant injury rating, imazamox; format: in vivo, Durum wheat; details: 0-9 scale, 0 = no injury, 9 = plant death
Procedure: as §3

Durum line UT15 = assay: Greenhouse Trial: plant injury rating, imazamox; format: in vivo, Durum wheat; details: 0-9 scale, 0 = no injury, 9 = plant death
Procedure: as §3

[4] = system: Wild Type Line UT (durum); assay: Greenhouse Trial: plant injury rating, imazamox; format: in vivo, Durum wheat; details: for Average plant injury rating: Wild Type Line UT, 0-9 scale, 0 = no injury, 9 = plant death
Procedure: as §3

[5] = system: One hundred ten M3:4 durum lines derived from sixteen M2 plants; assay: Field Trials (2): all tested M3:4 lines; format: in vivo, Durum wheat
Excerpt: as §1, §2

susceptible durum wheat = assay: Imazamox rate killing susceptible wheat; format: in vivo
Procedure: Nine M4:6 lines derived from four M2 plants (C119, C132, C137, CO12) were evaluated in a replicated trial at one location in a durum growing area in Italy. 75 g/ha of imazamox was applied to BBCH growth stage 21-25 plants. A rate of 35 g/ha would typically result in virtually 100% mortality of susceptible wheat. Percent crop response (overall injury) varied from 0 to 13% 21 days after treatment (DAT), and from 0 to 17% 43 DAT. Yield as a percent of the same line untreated varied from 85% to 102%.
as §2
A rate of 35 g/ha imazamox is adequate to kill susceptible Durum wheat.

## COCc1cnc(C2=NC(C)(C(C)C)C(=O)N2)c(C(=O)O)c1 (centres unmarked) [imazamox]
[1]
  AHAS activity relative to that of the control: one third to one half
[2]; imazamox 71 g/ha, 14 DAT
  % Chlorosis: 0-5%
  % Height Reduction: 0%
[2]; imazamox 71 g/ha, 30 DAT
  % Chlorosis: 0%
  % Height Reduction: 5-10%
[2]; imazamox 160 g/ha, 14 DAT
  % Chlorosis: 5-10%
  % Height Reduction: 0-20%
[2]; imazamox 160 g/ha, 30 DAT
  % Chlorosis: 0%
  % Height Reduction: 10-15%
[3]; imazamox 71 g/ha, 14 DAT
  % Chlorosis: 30-70%
  % Height Reduction: 0-10%
[3]; imazamox 71 g/ha, 30 DAT
  % Chlorosis: 0-10%
  % Height Reduction: 5-20%
[3]; imazamox 160 g/ha, 14 DAT
  % Chlorosis: 30-70%
  % Height Reduction: 0-10%
[3]; imazamox 160 g/ha, 30 DAT
  % Chlorosis: 0-15%
  % Height Reduction: 5-30%
Durum line UT10; imazamox 100 g/ha, 14 DAT
  Average plant injury rating: 5.8
Durum line UT10; imazamox 100 g/ha, 21 DAT
  Average plant injury rating: 4.3
Durum line UT10; imazamox 160 g/ha, 14 DAT
  Average plant injury rating: 6.5
Durum line UT10; imazamox 160 g/ha, 21 DAT
  Average plant injury rating: 5.1
Durum line UT19; imazamox 100 g/ha, 14 DAT
  Average plant injury rating: 3.3
Durum line UT19; imazamox 100 g/ha, 21 DAT
  Average plant injury rating: 1.1
Durum line UT19; imazamox 160 g/ha, 14 DAT
  Average plant injury rating: 3.6
Durum line UT19; imazamox 160 g/ha, 21 DAT
  Average plant injury rating: 1.7
Durum line UTO8; imazamox 100 g/ha, 14 DAT
  Average plant injury rating: 4.5
Durum line UTO8; imazamox 100 g/ha, 21 DAT
  Average plant injury rating: 1.9
Durum line UTO8; imazamox 160 g/ha, 14 DAT
  Average plant injury rating: 5.5
Durum line UTO8; imazamox 160 g/ha, 21 DAT
  Average plant injury rating: 3.0
Durum line C119; imazamox 100 g/ha, 14 DAT
  Average plant injury rating: 4.8
Durum line C119; imazamox 100 g/ha, 21 DAT
  Average plant injury rating: 1.0
Durum line C119; imazamox 160 g/ha, 14 DAT
  Average plant injury rating: 4.9
Durum line C119; imazamox 160 g/ha, 21 DAT
  Average plant injury rating: 1.4
Durum line UT14; imazamox 100 g/ha, 14 DAT
  Average plant injury rating: 3.1
Durum line UT14; imazamox 100 g/ha, 21 DAT
  Average plant injury rating: 1.7
Durum line UT14; imazamox 160 g/ha, 14 DAT
  Average plant injury rating: 4.8
Durum line UT14; imazamox 160 g/ha, 21 DAT
  Average plant injury rating: 3.5
Durum line UT13; imazamox 100 g/ha, 14 DAT
  Average plant injury rating: 4.7
Durum line UT13; imazamox 100 g/ha, 21 DAT
  Average plant injury rating: 2.3
Durum line UT13; imazamox 160 g/ha, 14 DAT
  Average plant injury rating: 5.8
Durum line UT13; imazamox 160 g/ha, 21 DAT
  Average plant injury rating: 3.4
Durum line UT17; imazamox 100 g/ha, 14 DAT
  Average plant injury rating: 4.1
Durum line UT17; imazamox 100 g/ha, 21 DAT
  Average plant injury rating: 2.5
Durum line UT17; imazamox 160 g/ha, 14 DAT
  Average plant injury rating: 4.7
Durum line UT17; imazamox 160 g/ha, 21 DAT
  Average plant injury rating: 3.1
Durum line UT16; imazamox 100 g/ha, 14 DAT
  Average plant injury rating: 5.4
Durum line UT16; imazamox 100 g/ha, 21 DAT
  Average plant injury rating: 2.0
Durum line UT16; imazamox 160 g/ha, 14 DAT
  Average plant injury rating: 4.9
Durum line UT16; imazamox 160 g/ha, 21 DAT
  Average plant injury rating: 2.8
Durum line UTO5; imazamox 100 g/ha, 14 DAT
  Average plant injury rating: 3.0
Durum line UTO5; imazamox 100 g/ha, 21 DAT
  Average plant injury rating: 1.3
Durum line UTO5; imazamox 160 g/ha, 14 DAT
  Average plant injury rating: 3.3
Durum line UTO5; imazamox 160 g/ha, 21 DAT
  Average plant injury rating: 1.8
Durum line UTO3; imazamox 100 g/ha, 14 DAT
  Average plant injury rating: 4.8
Durum line UTO3; imazamox 100 g/ha, 21 DAT
  Average plant injury rating: 2.2
Durum line UTO3; imazamox 160 g/ha, 14 DAT
  Average plant injury rating: 5.2
Durum line UTO3; imazamox 160 g/ha, 21 DAT
  Average plant injury rating: 2.8
Durum line UTO1; imazamox 100 g/ha, 14 DAT
  Average plant injury rating: 4.0
Durum line UTO1; imazamox 100 g/ha, 21 DAT
  Average plant injury rating: 1.4
Durum line UTO1; imazamox 160 g/ha, 14 DAT
  Average plant injury rating: 4.1
Durum line UTO1; imazamox 160 g/ha, 21 DAT
  Average plant injury rating: 2.6
Durum line UT15; imazamox 100 g/ha, 14 DAT
  Average plant injury rating: 4.3
Durum line UT15; imazamox 100 g/ha, 21 DAT
  Average plant injury rating: 2.7
Durum line UT15; imazamox 160 g/ha, 14 DAT
  Average plant injury rating: 4.6
Durum line UT15; imazamox 160 g/ha, 21 DAT
  Average plant injury rating: 3.0
[4]; imazamox 100 g/ha, 14 DAT
  Average plant injury rating: 8.9
[4]; imazamox 100 g/ha, 21 DAT
  Average plant injury rating: 9.0
[4]; imazamox 160 g/ha, 14 DAT
  Average plant injury rating: 9.0
[4]; imazamox 160 g/ha, 21 DAT
  Average plant injury rating: 9.0
[4]; imazamox 100 and 160 g/ha, by 21 days after treatment
  survival of wild type plants: killed
[5]; imazamox 71 g/ha and 160 g/ha (both rates), all tested M3:4 lines
  survival of tested lines: survived
[5]; lines evaluated at 71 and 160 g/ha imazamox
  tolerated rate relative to the 35 g/ha rate that kills susceptible durum wheat: almost 3 times to over 4 times
Susceptible durum wheat; imazamox application rate
  rate adequate to kill susceptible durum wheat: 35 g/ha
Susceptible durum wheat; read-out: mortality of susceptible wheat
  mortality at 35 g/ha: ~100%
